Assay results published in patent US8569292B2, “Cyclic inhibitors of 11β-hydroxysteroid dehydrogenase 1” (Vitae Pharmaceuticals, Inc., priority 2008, dated 2013).

Key:
11β-HSD1 [1] = target: T1, 11β-HSD1 (Homo sapiens, UniProt P28845); experiment: biochemical; settings: for inhibition at 0.1 µM: read-out: Average % inhibition at 100 nM
11β-HSD1 [2] = target: T1, 11β-HSD1; experiment: Biological Test Example 4: microsomal 11β-HSD1 in the presence of 50% human plasma; settings: for Shift: IC50 in Test Example 4 divided by IC50 in Test Example 1
CYP2C9 = target: T2, CYP2C9 (Homo sapiens, UniProt P11712); experiment: Biological Test Example 9: CYP2C9 inhibition (Invitrogen kit, fluorogenic OOMR); assay type: in vitro ADME
T2 construct: purchased Invitrogen 2859; host or cells: insect cells infected with baculovirus (microsomes)
T2 sequence (P11712 whole entry): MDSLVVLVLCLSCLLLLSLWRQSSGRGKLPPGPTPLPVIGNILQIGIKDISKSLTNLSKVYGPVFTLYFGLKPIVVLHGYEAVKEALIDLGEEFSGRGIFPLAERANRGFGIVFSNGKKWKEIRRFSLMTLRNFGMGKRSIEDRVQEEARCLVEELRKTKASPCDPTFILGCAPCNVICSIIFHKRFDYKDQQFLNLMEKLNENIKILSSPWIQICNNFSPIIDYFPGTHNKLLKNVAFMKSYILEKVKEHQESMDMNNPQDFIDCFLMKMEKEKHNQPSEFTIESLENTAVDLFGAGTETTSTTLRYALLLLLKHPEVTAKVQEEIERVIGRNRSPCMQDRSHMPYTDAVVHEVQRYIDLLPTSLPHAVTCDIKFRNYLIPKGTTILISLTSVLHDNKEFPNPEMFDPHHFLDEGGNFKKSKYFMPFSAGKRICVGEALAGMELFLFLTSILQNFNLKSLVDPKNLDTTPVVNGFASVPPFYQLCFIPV

[3] = Biological Test Example 1 IC50 (nM)
[4] = IC50 Range, Biological Test Example 1

T1 sequence (P28845 whole entry): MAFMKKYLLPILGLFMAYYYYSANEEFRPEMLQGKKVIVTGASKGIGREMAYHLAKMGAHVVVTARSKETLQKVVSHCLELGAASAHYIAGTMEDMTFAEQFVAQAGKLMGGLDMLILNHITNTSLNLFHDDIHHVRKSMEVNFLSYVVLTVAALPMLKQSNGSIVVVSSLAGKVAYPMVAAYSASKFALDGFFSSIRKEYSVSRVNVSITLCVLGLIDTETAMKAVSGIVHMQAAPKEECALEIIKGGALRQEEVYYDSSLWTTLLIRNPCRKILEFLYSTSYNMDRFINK

Structure (SMILES) | IC50 (11β-HSD1 [1]; [3]) | IC50 (11β-HSD1 [1]; [4]) | inhibition at 0.1 µM (11β-HSD1 [1]) | IC50 (11β-HSD1 [2]) | IC50 (CYP2C9) | Shift (11β-HSD1 [2])
C[C@@H](c1ccc(-c2ccncc2)cc1)N1CC[C@](CCCO)(c2ccccc2)OC1=O [EXAMPLE 35, (R)-6-(3-hydroxypropyl)-6-phenyl-3-((S)-1-(4-(pyridin-4-yl)phenyl)ethyl)-1,3-oxazinan-2-one] | – | – | – | – | 2200 nM | –
C[C@@H](c1ccc(-c2cncc(Cl)c2)cc1)N1CC[C@](CCCO)(c2ccc(F)cc2)OC1=O [EXAMPLE 69, (R)-3-((S)-1-(4-(5-chloropyridin-3-yl)phenyl)ethyl)-6-(4-fluoroPhenyl)-6-(3-hydroxypropyl)-1,3-oxazinan-2-one] | 0.6 nM | < 100 nM | 98.3% | 6.3 nM | 2300 nM | 9.8
C[C@@H](c1ccc(-c2cc[nH]n2)cc1)N1CC[C@](CCCO)(c2ccccc2)OC1=O [EXAMPLE 45, (R)-3-((S)-1-(4-(1H-pyrazol-3-yl)phenyl)ethyl)-6-(3-hydroxypropyl)-6-phenyl-1,3-oxazinan-2-one] | 3 nM | < 100 nM | 96.7% | 13.5 nM | 9000 nM | –
Cc1ncc(-c2ccc([C@H](C)N3CC[C@](CCCO)(c4ccc(F)cc4)OC3=O)cc2)cn1 [EXAMPLE 137, (R)-6-(4-fluorophenyl)-6-(3-hydroxypropyl)-3-((S)-1-(4-(2-methylpyrimidin-5-yl)phenyl)ethyl)-1,3-oxazinan-2-one] | – | – | – | – | 18400 nM | –
C[C@@H](c1ccc(-c2ccccn2)cc1)N1CC[C@](CCCNS(C)(=O)=O)(c2ccccc2)OC1=O [EXAMPLE 89, N-(3-((R)-2-oxo-6-phenyl-3-((S)-1-(4-(pyridin-2-yl)phenyl)ethyl)-1,3-oxazinan-6-yl)propyl)methanesulfonamide] | 0.6 nM | < 100 nM | 98.9% | 6.2 nM | 13300 nM | 10.5
C[C@@H](c1ccc(-c2ccccn2)cc1)N1CC[C@](CCCO)(c2ccc(F)cc2)OC1=O [EXAMPLE 59, (R)-6-(4-fluorophenyl)-6-(3-hydroxypropyl)-3-((S)-1-(4-(pyridin-2-yl)phenyl)ethyl)-1,3-oxazinan-2-one] | 0.5 nM | < 100 nM | 100% | 5.1 nM | 10900 nM | 9.9
Cc1cccc(-c2ccc([C@H](C)N3CC[C@](CCCO)(c4ccc(F)cc4)OC3=O)cc2)n1 [EXAMPLE 62, (R)-6-(4-fluorophenyl)-6-(3-hydroxypropyl)-3-((S)-1-(4-(6-methylpyridin-2-yl)phenyl)ethyl)-1,3-oxazinan-2-one] | 0.5 nM | < 100 nM | 97.9% | 22.6 nM | 10900 nM | 44.2
COc1ccc(-c2ccc([C@H](C)N3CC[C@](CCCNS(C)(=O)=O)(c4ccccc4)OC3=O)cc2)cn1 [EXAMPLE 94, N-(3-((R)-3-((S)-1-(4-(6-methoxypyridin-3-yl)phenyl)ethyl)-2-oxo-6-phenyl-1,3-oxazinan-6-yl)propyl)methanesulfonamide] | 0.5 nM | < 100 nM | 98.7% | 5 nM | 4500 nM | 11.0
C[C@@H](c1ccc(-c2cccnc2)cc1)N1CC[C@](CCNS(C)(=O)=O)(c2ccccc2)OC1=O [EXAMPLE 55, N-(2-((S)-2-oxo-6-phenyl-3-((S)-1-(4-(pyridin-3-yl)phenyl)ethyl)-1,3-oxazinan-6-yl)ethyl)methanesulfonamide] | – | – | 96.5% | – | 14100 nM | –
Cc1ccc(-c2ccc([C@H](C)N3CC[C@](CCc4nnc(C)o4)(c4ccccc4)OC3=O)cc2)nn1 [EXAMPLE 12, (R)-6-(2-(5-methyl-1,3,4-oxadiazol-2-yl)ethyl)-3-((S)-1-(4-(6-methylpyridazin-3-yl)phenyl)ethyl)-6-phenyl-1,3-oxazinan-2-one] | – | – | – | – | 4000 nM | –
Cc1nnc(CC[C@]2(c3ccccc3)CCN([C@@H](C)c3ccc(-c4ccc(C#N)cn4)cc3)C(=O)O2)s1 [EXAMPLE 146, 6-(4-((S)-1-((R)-6-(2-(5-methyl-1,3,4-thiadiazol-2-yl)ethyl)-2-oxo-6-phenyl-1,3-oxazinan-3-yl)ethyl)phenyl)nicotinonitrile] | 17.4 nM | < 100 nM | 78.9% | – | 6100 nM | –
COc1ccc(-c2ccc([C@H](C)N3CC[C@](CCCO)(c4ccccc4)OC3=O)cc2)cn1 [EXAMPLE 40, (R)-6-(3-hydroxypropyl)-3-((S)-1-(4-(6-methoxypyridin-3-yl)phenyl)ethyl)-6-phenyl-1,3-oxazinan-2-one] | – | – | – | – | 10000 nM | –
C[C@@H](c1ccc(-c2ccc(N)nc2)cc1)N1CC[C@](CCCO)(c2ccccc2)OC1=O [EXAMPLE 95, (R)-3-((S)-1-(4-(6-aminopyridin-3-yl)phenyl)ethyl)-6-(3-hydroxypropyl)-6-phenyl-1,3-oxazinan-2-one] | – | – | – | – | 2400 nM | –
C[C@@H](c1ccc(-c2cccnc2)cc1)N1CC[C@](CCCO)(c2ccccc2)OC1=O [EXAMPLE 36, (R)-6-(3-hydroxypropyl)-6-phenyl-3-((S)-1-(4-(pyridin-3-yl)phenyl)ethyl)-1,3-oxazinan-2-one] | – | – | – | – | 5200 nM | –
C[C@@H](c1ccc(-c2cncc(F)c2)cc1)N1CC[C@](CCCO)(c2ccccc2)OC1=O [EXAMPLE 49, (R)-3-((S)-1-(4-(5-fluoropyridin-3-yl)phenyl)ethyl)-6-(3-hydroxypropyl)-6-phenyl-1,3-oxazinan-2-one] | – | – | – | – | 8400 nM | –
C[C@@H](c1ccc(-c2ccc[n+]([O-])c2)cc1)N1CC[C@](CCCO)(c2ccccc2)OC1=O [EXAMPLE 38, 3-(4-((S)-1-((R)-6-(3-hydroxypropyl)-2-oxo-6-phenyl-1,3-oxazinan-3-yl)ethyl)phenyl)pyridine 1-oxide] | – | – | – | – | > 30000 nM | –

More lines, now with the values ahead:

IC50 (11β-HSD1 [1]; [3]) | IC50 (11β-HSD1 [1]; [4]) | inhibition at 0.1 µM (11β-HSD1 [1]) | IC50 (11β-HSD1 [2]) | IC50 (CYP2C9) | Shift (11β-HSD1 [2]) | Structure (SMILES)
0.9 nM | < 100 nM | 98.7% | 7.9 nM | 4600 nM | – | COc1cc(-c2ccc([C@H](C)N3CC[C@](CCCO)(c4ccc(F)cc4)OC3=O)cc2)ccn1 [EXAMPLE 147, (R)-6-(4-fluorophenyl)-6-(3-hydroxypropyl)-3-((S)-1-(4-(2-methoxypyridin-4-yl)phenyl)ethyl)-1,3-oxazinan-2-one]
3.2 nM | < 100 nM | 93.6% | 269 nM | 17500 nM | 83.8 | Cc1cc(-c2ccc([C@H](C)N3CC[C@](C)(c4ccc(F)cc4)OC3=O)cc2)ccn1 (single isomer, unassigned) [EXAMPLE 107.2]
6.1 nM | < 100 nM | 95.2% | 18.9 nM | 18300 nM | 3.1 | C[C@@H](c1ccc(-c2cccnn2)cc1)N1CC[C@](CCCO)(c2ccc(F)cc2)OC1=O [EXAMPLE 132, (R)-6-(4-fluorophenyl)-6-(3-hydroxypropyl)-3-((S)-1-(4-(pyridazin-3-yl)phenyl)ethyl)-1,3-oxazinan-2-one]
6.1 nM | < 100 nM | 93.7% | 69.8 nM | > 30000 nM | 11.5 | Cc1cc(-c2ccc([C@H](C)N3CC[C@](CCCO)(c4ccc(F)cc4)OC3=O)cc2)nc(C)n1 [EXAMPLE 127, (R)-3-((S)-1-(4-(2,6-dimethylpyrimidin-4-yl)phenyl)ethyl)-6-(4-fluorophenyl)-6-(3-hydroxypropyl)-1,3-oxazinan-2-one]
0.7 nM | < 100 nM | 101% | 6.7 nM | 3800 nM | 9.9 | COc1ccc(-c2ccc([C@H](C)N3CC[C@](CCCNS(C)(=O)=O)(c4ccc(F)cc4)OC3=O)cc2)cn1 [EXAMPLE 67, N-(3-((R)-6-(4-fluorophenyl)-3-((S)-1-(4-(6-methoxypyridin-3-yl)phenyl)ethyl)-2-oxo-1,3-oxazinan-6-yl)propyl)methanesulfonamide]
32.8 nM | < 100 nM | 72.4% | – | > 30000 nM | – | Cc1nnc(CC[C@]2(c3ccccc3)CCN([C@@H](C)c3ccc(-c4ccc(C#N)cn4)cc3)C(=O)O2)o1 [EXAMPLE 145, 6-(4-((S)-1-((R)-6-(2-(5-methyl-1,3,4-oxadiazol-2-yl)ethyl)-2-oxo-6-phenyl-1,3-oxazinan-3-yl)ethyl)phenyl)nicotinonitrile]
– | – | – | – | > 30000 nM | – | Cc1cc(-c2ccc([C@H](C)N3CC[C@](CCCO)(c4ccccc4)OC3=O)cc2)cc(C)n1 [EXAMPLE 133, (R)-3-((S)-1-(4-(2,6-dimethylpyridin-4-yl)phenyl)ethyl)-6-(3-hydroxypropyl)-6-phenyl-1,3-oxazinan-2-one]
0.5 nM | < 100 nM | 95.2% | – | 6100 nM | – | C[C@@H](c1ccc(-c2ccc(F)cn2)cc1)N1CC[C@](CCCO)(c2ccccc2)OC1=O [EXAMPLE 112, (R)-3-((S)-1-(4-(5-fluoropyridin-2-yl)phenyl)ethyl)-6-(3-hydroxpropyl)-6-Phenyl-1,3-oxazinan-2-one]
22.7 nM | < 100 nM | 79.6% | – | 9500 nM | – | Cc1cc(-c2ccc([C@H](C)N3CC[C@](CCCN4CCCS4(=O)=O)(c4ccccc4)OC3=O)cc2)ccn1 [EXAMPLE 106, (R)-6-(3-(1,1-dioxo-isothiazolidin-2-yl)propyl)-3-((S)-1-(4-(2-methylpyridin-4-yl)phenyl)ethyl)-6-phenyl-1,3-oxazinan-2-one]
19.2 nM | < 100 nM | 86.3% | – | 2500 nM | – | Cc1cc(-c2ccc([C@H](C)N3CC[C@](CCN4CCCS4(=O)=O)(c4ccccc4)OC3=O)cc2)ccn1 [EXAMPLE 105, (S)-6-(2-(1,1-dioxo-isothiazolidin-2-yl)ethyl)-3-((S)-1-(4-(2-methylpyridin-4-yl)phenyl)ethyl)-6-phenyl-1,3-oxazinan-2-one]
